Test results taken from US7371758B2, “Antimalarial pyrimidine derivatives and methods of making and using them” (National Science & Technology Development Agency, priority 2003, dated 2008).

How the values were obtained:
[1] = Cytotoxicity to mammalian cells, Vero; type: cell-based; conditions: African green monkey, Vero cells (African green monkey kidney epithelial cells)
[2] = target: dihydrofolate reductase of Plasmodium falciparum, wild type (Plasmodium falciparum, UniProt A7UD81); test: PfDHFR enzyme inhibition constants (Ki), wild type; type: biochemical; conditions: 25° C., 340 nm
[3] = system: Plasmodium falciparum TM4/8.2 (wild type); test: In vitro antimalarial activity, [3H]-hypoxanthine incorporation, TM4/8.2; type: cell-based; conditions: P. falciparum TM4/8.2, wild type
Experimental: P. falciparum strains were used in this study. P. falciparum strains were maintained continuously in human erythrocytes at 37° C. under 3% CO2 in RPMI 1640 culture media supplemented with 25 mM HEPES, pH 7.4, 0.2% NaHCO3, 40 μg/mL gentamicin and 10% human serum.
In vitro antimalarial activity was determined by using [^3H]-hypoxanthine incorporation method. The drugs were initially dissolved in DMSO and diluted with the culture media. Aliquots (25 μL) of the drug of different concentrations were dispensed in 96-well plates and 200 μL of 1.5% cell suspension of parasitized erythrocytes containing 1-2% parasitemia were added. […] The mixtures were incubated in a 3% CO2 incubator at 37° C. After 24 h of incubation, 25 μL (0.25 μCi) of [^3H]-hypoxanthine were added to each well. The parasite cultures were further incubated under the same condition for 18-24 h. DNA of parasites was harvested onto glass filter paper. The filters were air-dried and 20 μL liquid scintillation fluid was added. The radioactivity on the filters was then measured using a microplate scintillation counter. […] Examples of the invented compounds in this series with active antimalarial activity against wild type and in particular against parasites carrying single, double, triple, and quadruple mutant enzymes are as summarized in Table 2.

PfDHFR C59R + S108N = target: T1, PfDHFR C59R + S108N (Plasmodium falciparum, UniProt A7UD81, C59R/S108N); test: PfDHFR enzyme inhibition constants (Ki), double mutant C59R + S108N; type: biochemical
T1 construct: made in house; host or cells: E. coli BL21 (DE3)pLysS

[4] = target: PfDHFR C59R + S108N + I164L (Plasmodium falciparum, UniProt A7UD81, C59R/I164L/S108N); test: biochemical
[5] = Cytotoxicity to mammalian cells, KB; type: cell-based; conditions: human, KB cells (human epidermoid carcinoma)
Experimental: (§1) Cytotoxicity tests of the invented compounds against African green monkey kidney fibroblast (Vero cells), Human epidermoid carcinoma (KB) cells, Human breast cancer (BC) cells were performed according to the protocol described by Skehan et al (1990). These compounds have selectivity against malaria parasites with no or less effect on mammalian cell lines.

E. coli = test: Antibacterial activity, bacterial growth inhibition, E. coli; type: cell-based; conditions: Escherichia coli, 20 hours incubation, 600 nm
Experimental: (§2) The IC50-values was determined from the sigmoidal curve obtained by plotting the percentages of bacterial growth against drug concentrations. These compounds have selectivity against malaria parasites with no or less effect on bacteria. The antibacterial activities to S. aureus, and E. coli are as summerized in Table 4.

[6] = target: PfDHFR N51I + C59R + S108N (Plasmodium falciparum, UniProt A7UD81, C59R/N51I/S108N); test: biochemical
Staphylococcus aureus = test: Antibacterial activity, bacterial growth inhibition, S. aureus; type: cell-based; conditions: 20 hours incubation, 600 nm
Experimental: as §2

PfDHFR S108N = target: T2, PfDHFR S108N (Plasmodium falciparum, UniProt A7UD81, S108N); test: PfDHFR enzyme inhibition constants (Ki), single mutant S108N; type: biochemical
T2 construct: made in house; host or cells: E. coli BL21 (DE3)pLysS

[7] = target: T3, PfDHFR N51I + C59R + S108N + I164L (Plasmodium falciparum, UniProt A7UD81, C59R/I164L/N51I/S108N); test: PfDHFR enzyme inhibition constants (Ki), quadruple mutant N51I + C59R + S108N + I164L; type: biochemical
T3 construct: made in house; host or cells: E. coli BL21 (DE3)pLysS

[8] = Cytotoxicity to mammalian cells, BC; type: cell-based; conditions: human, BC cells (human breast cancer)
Experimental: as §1

T3 sequence (A7UD81 whole entry N51I/C59R/S108N/I164L): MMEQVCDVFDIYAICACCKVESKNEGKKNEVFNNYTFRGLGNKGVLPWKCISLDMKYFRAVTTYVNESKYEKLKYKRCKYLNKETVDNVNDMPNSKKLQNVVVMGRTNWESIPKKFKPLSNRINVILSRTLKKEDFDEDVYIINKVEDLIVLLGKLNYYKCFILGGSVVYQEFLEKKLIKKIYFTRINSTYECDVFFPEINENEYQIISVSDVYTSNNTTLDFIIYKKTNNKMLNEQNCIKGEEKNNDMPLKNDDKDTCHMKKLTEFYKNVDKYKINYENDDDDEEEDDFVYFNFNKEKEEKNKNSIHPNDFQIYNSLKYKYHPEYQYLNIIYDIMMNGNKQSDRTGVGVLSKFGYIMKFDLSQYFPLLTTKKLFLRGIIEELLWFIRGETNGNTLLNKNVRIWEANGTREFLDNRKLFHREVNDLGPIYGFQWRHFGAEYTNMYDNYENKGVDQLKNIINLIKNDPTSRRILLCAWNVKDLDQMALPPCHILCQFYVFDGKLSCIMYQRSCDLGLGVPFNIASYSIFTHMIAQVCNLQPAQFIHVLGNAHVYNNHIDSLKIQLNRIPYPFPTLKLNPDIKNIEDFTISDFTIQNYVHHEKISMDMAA
Chain of PfDHFR C59R + S108N + I164L (A7UD81 whole entry C59R/S108N/I164L): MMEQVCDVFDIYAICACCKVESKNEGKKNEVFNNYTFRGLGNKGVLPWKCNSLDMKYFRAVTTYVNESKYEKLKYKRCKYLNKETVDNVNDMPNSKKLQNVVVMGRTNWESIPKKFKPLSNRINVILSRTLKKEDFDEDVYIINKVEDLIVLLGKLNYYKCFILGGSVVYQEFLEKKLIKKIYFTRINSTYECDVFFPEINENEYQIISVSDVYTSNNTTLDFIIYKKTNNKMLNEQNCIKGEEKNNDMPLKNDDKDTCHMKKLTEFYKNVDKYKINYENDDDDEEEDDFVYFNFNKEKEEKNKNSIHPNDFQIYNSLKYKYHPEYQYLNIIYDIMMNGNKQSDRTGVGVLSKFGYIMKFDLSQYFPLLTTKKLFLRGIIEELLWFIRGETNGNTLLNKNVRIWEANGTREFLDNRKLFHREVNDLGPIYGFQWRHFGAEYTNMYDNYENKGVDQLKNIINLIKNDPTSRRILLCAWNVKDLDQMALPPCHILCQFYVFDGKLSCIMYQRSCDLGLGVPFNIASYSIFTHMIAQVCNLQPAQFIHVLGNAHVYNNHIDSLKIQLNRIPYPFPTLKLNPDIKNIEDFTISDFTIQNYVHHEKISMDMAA
Chain of dihydrofolate reductase of Plasmodium falciparum, wild type (A7UD81 entry or part of it): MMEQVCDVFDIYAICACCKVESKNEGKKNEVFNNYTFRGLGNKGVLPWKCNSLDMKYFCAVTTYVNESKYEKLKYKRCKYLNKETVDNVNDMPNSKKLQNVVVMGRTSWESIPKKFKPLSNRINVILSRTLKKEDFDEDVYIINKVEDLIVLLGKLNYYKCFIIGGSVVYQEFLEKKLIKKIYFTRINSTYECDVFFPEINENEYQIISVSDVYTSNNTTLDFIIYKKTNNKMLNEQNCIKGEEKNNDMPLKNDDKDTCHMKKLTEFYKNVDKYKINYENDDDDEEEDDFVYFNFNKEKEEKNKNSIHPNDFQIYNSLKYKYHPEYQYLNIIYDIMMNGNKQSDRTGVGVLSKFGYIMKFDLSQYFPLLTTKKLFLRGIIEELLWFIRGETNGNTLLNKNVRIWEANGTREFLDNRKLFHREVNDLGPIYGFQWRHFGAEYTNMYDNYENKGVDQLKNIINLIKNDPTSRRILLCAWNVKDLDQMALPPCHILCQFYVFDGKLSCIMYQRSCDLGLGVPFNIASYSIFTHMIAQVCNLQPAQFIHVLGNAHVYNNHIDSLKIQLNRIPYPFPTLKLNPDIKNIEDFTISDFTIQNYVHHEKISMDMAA
Chain of PfDHFR N51I + C59R + S108N (A7UD81 whole entry N51I/C59R/S108N): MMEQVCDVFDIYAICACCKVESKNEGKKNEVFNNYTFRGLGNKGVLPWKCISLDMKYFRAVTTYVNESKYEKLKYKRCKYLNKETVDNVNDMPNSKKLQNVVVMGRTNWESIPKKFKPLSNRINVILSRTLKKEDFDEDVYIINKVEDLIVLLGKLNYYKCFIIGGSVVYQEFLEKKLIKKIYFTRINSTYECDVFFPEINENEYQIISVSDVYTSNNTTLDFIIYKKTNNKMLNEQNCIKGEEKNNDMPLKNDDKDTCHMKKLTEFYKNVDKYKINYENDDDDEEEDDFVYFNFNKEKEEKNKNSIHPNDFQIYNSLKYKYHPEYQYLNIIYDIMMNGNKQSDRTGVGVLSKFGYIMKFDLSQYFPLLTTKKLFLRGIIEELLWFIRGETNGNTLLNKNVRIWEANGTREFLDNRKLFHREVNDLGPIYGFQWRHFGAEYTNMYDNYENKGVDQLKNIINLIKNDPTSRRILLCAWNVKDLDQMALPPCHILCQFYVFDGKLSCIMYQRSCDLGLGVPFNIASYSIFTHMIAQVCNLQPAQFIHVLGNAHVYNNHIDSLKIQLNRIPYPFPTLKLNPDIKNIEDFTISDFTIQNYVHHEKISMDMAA
T1 sequence (A7UD81 whole entry C59R/S108N): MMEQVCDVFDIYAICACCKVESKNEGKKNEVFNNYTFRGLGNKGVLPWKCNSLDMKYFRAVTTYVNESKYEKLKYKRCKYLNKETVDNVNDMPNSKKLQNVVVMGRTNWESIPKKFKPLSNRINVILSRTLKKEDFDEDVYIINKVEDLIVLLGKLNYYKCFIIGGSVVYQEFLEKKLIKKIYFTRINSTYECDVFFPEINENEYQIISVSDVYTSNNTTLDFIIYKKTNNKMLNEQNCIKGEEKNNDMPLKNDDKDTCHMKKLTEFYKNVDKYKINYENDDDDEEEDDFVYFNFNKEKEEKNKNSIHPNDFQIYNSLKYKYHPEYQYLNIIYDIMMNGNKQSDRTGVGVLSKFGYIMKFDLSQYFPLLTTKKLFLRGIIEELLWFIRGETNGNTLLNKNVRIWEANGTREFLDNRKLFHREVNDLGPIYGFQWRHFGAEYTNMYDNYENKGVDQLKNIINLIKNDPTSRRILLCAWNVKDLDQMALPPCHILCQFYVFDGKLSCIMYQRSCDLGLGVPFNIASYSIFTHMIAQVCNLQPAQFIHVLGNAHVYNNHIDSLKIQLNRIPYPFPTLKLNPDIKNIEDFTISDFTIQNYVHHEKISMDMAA
T2 sequence (A7UD81 whole entry S108N): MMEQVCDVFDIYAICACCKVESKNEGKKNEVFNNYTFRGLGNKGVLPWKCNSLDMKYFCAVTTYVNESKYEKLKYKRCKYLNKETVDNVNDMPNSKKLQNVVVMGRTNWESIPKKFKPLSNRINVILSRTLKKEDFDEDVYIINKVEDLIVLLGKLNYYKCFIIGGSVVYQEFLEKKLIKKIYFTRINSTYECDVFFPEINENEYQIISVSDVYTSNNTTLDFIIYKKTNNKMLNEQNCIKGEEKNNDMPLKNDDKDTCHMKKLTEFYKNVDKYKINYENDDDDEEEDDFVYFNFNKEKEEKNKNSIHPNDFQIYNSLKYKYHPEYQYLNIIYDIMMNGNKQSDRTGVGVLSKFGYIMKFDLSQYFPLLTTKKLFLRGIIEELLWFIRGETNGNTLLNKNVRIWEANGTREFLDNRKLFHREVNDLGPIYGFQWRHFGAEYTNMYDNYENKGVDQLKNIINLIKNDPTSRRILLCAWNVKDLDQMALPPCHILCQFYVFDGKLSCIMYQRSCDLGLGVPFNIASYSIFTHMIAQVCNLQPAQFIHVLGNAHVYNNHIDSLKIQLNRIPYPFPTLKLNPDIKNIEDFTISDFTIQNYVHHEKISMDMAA

COc1ccc(CCCc2nc(N)nc(N)c2-c2cccc(Cl)c2)cc1 [Example 5, 2,4-diamino-5-(3-chlorophenyl)-6-[3-(4-methoxyphenyl)propyl]pyrimidine]
IC50 [1]: 3000 nM
Ki [2]: 2.2 ± 0.6 nM
IC50 [3]: 410 ± 50 nM
Ki (PfDHFR C59R + S108N): 6 ± 0.6 nM
Ki [4]: 2.9 ± 0.3 nM
IC50 [5]: 15000 nM
IC50 (E. coli): > 50000 nM
Ki [6]: 1.3 ± 0.1 nM
IC50 (Staphylococcus aureus): 38000 nM
Ki (PfDHFR S108N): 4 ± 0.2 nM
Ki [7]: 2 ± 0.4 nM
IC50 [8]: 3000 nM

COC(=O)CCCc1nc(N)nc(N)c1-c1ccccc1 [Example 3, 2,4-diamino-6-(3-methoxycarbonylpropyl)-5-phenylpyrimidine]
IC50 [1]: 20000 nM
Ki [2]: 0.6 nM
IC50 [3]: 390 ± 60 nM
Ki (PfDHFR C59R + S108N): 5.5 ± 0.5 nM
Ki [4]: 15 ± 3 nM
IC50 [5]: 71000 nM
IC50 (E. coli): > 50000 nM
Ki [6]: 3.3 ± 0.6 nM
IC50 (Staphylococcus aureus): > 50000 nM
Ki (PfDHFR S108N): 1.8 ± 0.2 nM
Ki [7]: 24 ± 2 nM
IC50 [8]: 500000 nM

Nc1nc(N)c(-c2ccccc2)c(CCCc2ccccc2)n1 [Example 2, 2,4-diamino-5-phenyl-6-(3-phenylpropyl)pyrimidine]
IC50 [1]: > 50000 nM
Ki [2]: 0.5 nM
IC50 [3]: 210 ± 60 nM
Ki (PfDHFR C59R + S108N): 2.4 ± 0.1 nM
Ki [4]: 1.9 ± 0.1 nM
IC50 [5]: 150000 nM
IC50 (E. coli): > 50000 nM
Ki [6]: 1.1 ± 0.1 nM
IC50 (Staphylococcus aureus): > 50000 nM
Ki (PfDHFR S108N): 0.9 ± 0.2 nM
Ki [7]: 4.7 ± 0.9 nM
IC50 [8]: 250000 nM

Nc1nc(N)c(-c2cccc(Cl)c2)c(CCOCCCOc2ccccc2)n1 [Example 7, 2,4-diamino-5-(3-chlorophenyl)-6-[2-(3-phenoxypropyloxy)ethyl]pyrimidine]
IC50 [1]: 15000 nM
Ki [2]: 0.4 ± 0.2 nM
IC50 [3]: 350 ± 80 nM
Ki (PfDHFR C59R + S108N): 1.9 ± 0.4 nM
Ki [4]: 1.3 ± 0.4 nM
IC50 [5]: 6400 nM
IC50 (E. coli): > 50000 nM
Ki [6]: 0.7 ± 0.1 nM
IC50 (Staphylococcus aureus): > 50000 nM
Ki (PfDHFR S108N): 1.8 ± 0.3 nM
Ki [7]: 1.7 ± 0.2 nM
IC50 [8]: 4900 nM

COc1cc(Cc2cnc(N)nc2N)cc(OC)c1OC [Trimethoprim, reference compound]
IC50 (E. coli): 2300 nM
IC50 (Staphylococcus aureus): 6000 nM

COC(=O)CCCc1nc(N)nc(N)c1-c1cccc(Cl)c1 [Example 6, 2,4-diamino-5-(3-chlorophenyl)-6-(3-methoxycarbonylpropyl)pyrimidine]
IC50 [1]: 20000 nM
Ki [2]: 0.5 nM
IC50 [3]: 790 ± 100 nM
Ki (PfDHFR C59R + S108N): 2.8 ± 0.2 nM
Ki [4]: 1.8 ± 0.4 nM
IC50 [5]: 9300 nM
IC50 (E. coli): > 50000 nM
Ki [6]: 0.8 ± 0.2 nM
IC50 (Staphylococcus aureus): > 50000 nM
Ki (PfDHFR S108N): 1.7 ± 0.1 nM
Ki [7]: 2.7 ± 1.2 nM
IC50 [8]: 22800 nM

CCc1nc(N)nc(N)c1-c1ccc(Cl)cc1 [Pyr, pyrimethamine, reference compound]
IC50 [3]: 80 ± 10 nM
IC50 [5]: 109000 nM
IC50 [8]: 40000 nM

Nc1nc(N)c(-c2cccc(Cl)c2)c(CCCc2ccccc2)n1 [Example 4, 2,4-diamino-5-(3-chlorophenyl)-6-(3-phenylpropyl)pyrimidine]
IC50 [1]: 2100 nM
Ki [2]: 1.2 ± 0.2 nM
IC50 [3]: 670 ± 60 nM
Ki (PfDHFR C59R + S108N): 4.2 ± 0.2 nM
Ki [4]: 2.2 ± 0.3 nM
IC50 [5]: 1600 nM
IC50 (E. coli): > 50000 nM
Ki [6]: 2 ± 0.2 nM
IC50 (Staphylococcus aureus): > 50000 nM
Ki (PfDHFR S108N): 3 ± 0.6 nM
Ki [7]: 2 ± 0.8 nM
IC50 [8]: 1600 nM

CCCCCCc1nc(N)nc(N)c1-c1ccccc1 [Example 1, 2,4-diamino-6-(n-hexyl)-5-phenylpyrimidine]
IC50 [1]: 55000 nM
Ki [2]: 0.3 ± 0.1 nM
IC50 [3]: 60 ± 20 nM
Ki (PfDHFR C59R + S108N): 0.7 ± 0.3 nM
Ki [4]: 0.7 ± 0.2 nM
IC50 [5]: 113000 nM
IC50 (E. coli): > 10000 nM
Ki [6]: 0.4 ± 0.02 nM
IC50 (Staphylococcus aureus): > 10000 nM
Ki (PfDHFR S108N): 1.2 ± 0.3 nM
Ki [7]: 1.4 ± 0.5 nM
IC50 [8]: 268000 nM
